Several values for one entry are separate records, joined by “and”; a condition that tells them apart may be missing. Equal entries are not always repeated. Inconclusive results and toxic doses are left out. Rule as the data show it: active = T/C of 150% or more; inactive = T/C below 125%.
Test system: L1210 leukemia ip in BDF1 mice, survival T/C
Experiment: NCI In Vivo Anticancer Drug Screen. Data for tumor model L1210 Leukemia (intraperitoneal) in B6D2F1 (BDF1) mice
Conditions: endpoint: mean survival time, higher = longer survival
Method in brief: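 Tumor was transplanted into mice, which were then dosed with test compound or vehicle alone. Survival was recorded for each group, and the treated figure was expressed relative to the control figure.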

[1] = dose: 100.0 mg/kg/injection, schedule: Q04DX002 (ip), vehicle: Klucel (hydroxypropylcellulose) (HPC)
[2] = dose: 200.0 mg/kg/injection, schedule: Q04DX002 (ip), vehicle: Klucel (hydroxypropylcellulose) (HPC)
[3] = dose: 400.0 mg/kg/injection, schedule: Q04DX002 (ip), vehicle: Klucel (hydroxypropylcellulose) (HPC)
[4] = dose: 100.0 mg/kg/injection, schedule: Q01DX009 (ip), vehicle: saline with Tween-80
[5] = dose: 100.0 mg/kg/injection, schedule: Q04DX003 (ip), vehicle: saline with Tween-80
[6] = dose: 200.0 mg/kg/injection, schedule: Q01DX009 (ip), vehicle: saline with Tween-80
[7] = dose: 200.0 mg/kg/injection, schedule: Q04DX003 (ip), vehicle: saline with Tween-80
[8] = dose: 100.0 mg/kg/injection, schedule: Q04DX003 (ip), vehicle: saline
[9] = dose: 200.0 mg/kg/injection, schedule: Q04DX003 (ip), vehicle: saline
[10] = dose: 400.0 mg/kg/injection, schedule: Q04DX003 (ip), vehicle: saline
[11] = dose: 100.0 mg/kg/injection, schedule: Q01DX009 (ip), vehicle: Klucel (hydroxypropylcellulose) (HPC)
[12] = dose: 200.0 mg/kg/injection, schedule: Q01DX009 (ip), vehicle: Klucel (hydroxypropylcellulose) (HPC)
[13] = dose: 400.0 mg/kg/injection, schedule: Q01DX009 (ip), vehicle: Klucel (hydroxypropylcellulose) (HPC)
[14] = dose: 50.0 mg/kg/injection, schedule: Q04DX003 (ip), vehicle: saline
[15] = dose: 100.0 mg/kg/injection, schedule: Q01DX001 (ip), vehicle: saline
[16] = dose: 200.0 mg/kg/injection, schedule: Q01DX001 (ip), vehicle: saline
[17] = dose: 400.0 mg/kg/injection, schedule: Q01DX001 (ip), vehicle: saline

Measured: T/C

O=C1C=CC(=O)N1c1ccc(F)cc1 (tested in a mixture with another compound)
inactive: dose: 100.0 mg/kg/injection, schedule: Q04DX003 (ip), vehicle: acetone 86 % of control | dose: 100.0 mg/kg/injection, schedule: Q04DX003 (ip), vehicle: other 97 % of control | dose: 200.0 mg/kg/injection, schedule: Q04DX003 (ip), vehicle: acetone 86 % of control | dose: 200.0 mg/kg/injection, schedule: Q04DX003 (ip), vehicle: other 86 % of control | dose: 400.0 mg/kg/injection, schedule: Q04DX003 (ip), vehicle: other 87 % of control and 95 % of control

COC1OC2COc3ccccc3OC2C2C1N2C(N)=S (stereo not given)
inactive: dose: 100.0 mg/kg/injection, schedule: Q04DX002 (ip), vehicle: saline 96 % of control | dose: 200.0 mg/kg/injection, schedule: Q04DX002 (ip), vehicle: saline 100 % of control | dose: 400.0 mg/kg/injection, schedule: Q04DX002 (ip), vehicle: saline 100 % of control

COc1ccc(OC(=O)Nc2ccccc2C)cc1
inactive: dose: 50.0 mg/kg/injection, schedule: Q04DX002 (ip), vehicle: Klucel (hydroxypropylcellulose) (HPC) 104 % of control | [1] 100 % of control and 101 % of control | [2] 101 % of control | [3] 104 % of control and 111 % of control

Cc1ccccc1NC=O
inactive: [4] 101 % of control | [5] 87 % of control | [6] 101 % of control | [7] 91 % of control | dose: 400.0 mg/kg/injection, schedule: Q04DX003 (ip), vehicle: saline with Tween-80 100 % of control

O=[N+]([O-])c1cc(Br)c(Br)cc1N1CCCC1
inactive: [8] 98 % of control | [9] 88 % of control | [10] 86 % of control

CC(C)=CC(=O)Nc1cccc(O)c1
inactive: [4] 96 % of control | [6] 91 % of control | dose: 400.0 mg/kg/injection, schedule: Q01DX009 (ip), vehicle: saline with Tween-80 92 % of control

O=[N+]([O-])c1ccc(/C=C/c2ccc([N+](=O)[O-])cc2S(=O)(=O)O)c(S(=O)(=O)O)c1
inactive: [8] 94 % of control | [9] 96 % of control | [10] 96 % of control

CSc1ccc(NC(=O)C(Br)C(Br)c2ccccc2)cc1 (stereo not given)
inactive: [11] 103 % of control | [12] 105 % of control | [13] 102 % of control

N#Cc1c(/N=C/c2cc(Cl)cc(Cl)c2O)sc2c1CCC2
inactive: dose: 100.0 mg/kg/injection, schedule: Q04DX002 (ip), vehicle: saline with Tween-80 95 % of control | dose: 200.0 mg/kg/injection, schedule: Q04DX002 (ip), vehicle: saline with Tween-80 113 % of control | dose: 400.0 mg/kg/injection, schedule: Q04DX002 (ip), vehicle: saline with Tween-80 91 % of control

O=[N+]([O-])C1CC=CCC1c1ccc(C2CC=CCC2[N+](=O)[O-])cc1 (stereo not given)
inactive: dose: 100.0 mg/kg/injection, schedule: Q01DX001 (ip), vehicle: carboxymethylcellulose (CMC) 96 % of control | dose: 200.0 mg/kg/injection, schedule: Q01DX001 (ip), vehicle: carboxymethylcellulose (CMC) 94 % of control | dose: 400.0 mg/kg/injection, schedule: Q01DX001 (ip), vehicle: carboxymethylcellulose (CMC) 92 % of control

O=C1C=CC(=O)N1c1ccc(N2C(=O)C=CC2=O)cc1
inactive: dose: 25.0 mg/kg/injection, schedule: Q04DX003 (ip), vehicle: saline 110 % of control | [14] 107 % of control | [8] 100 % of control

CCOC(=O)C(C)C(O)(c1ccccc1)c1ccccc1 (stereo not given)
inactive: [11] 90 % of control | [12] 97 % of control | [13] 106 % of control

CCCCn1c2ccccc2c2ccccc21
inactive: dose: 50.0 mg/kg/injection, schedule: Q04DX003 (ip), vehicle: saline with Tween-80 96 % of control | [5] 96 % of control | [7] 102 % of control

CN1CCN(Cn2cnc3c2c(=O)n(C)c(=O)n3C)CC1
inactive: dose: 75.0 mg/kg/injection, schedule: Q01DX001 (ip), vehicle: saline 92 % of control | dose: 150.0 mg/kg/injection, schedule: Q01DX001 (ip), vehicle: saline 100 % of control | dose: 300.0 mg/kg/injection, schedule: Q01DX001 (ip), vehicle: saline 122 % of control

COc1ccc(C(=O)N/N=C/c2cc(OC)ccc2O)cc1
inactive: [1] 110 % of control | [2] 104 % of control | [3] 100 % of control

CCOC(C)(C)C
inactive: [15] 97 % of control | [16] 103 % of control | [17] 106 % of control

CC12CC(=O)OC1(C)C1CCC2C1 (stereo not given)
inactive: dose: 6.25 mg/kg/injection, schedule: Q01DX009 (ip), vehicle: acetone 111 % of control | dose: 6.25 mg/kg/injection, schedule: Q04DX003 (ip), vehicle: acetone 101 % of control | dose: 12.5 mg/kg/injection, schedule: Q01DX001 (ip), vehicle: acetone 96 % of control | dose: 12.5 mg/kg/injection, schedule: Q01DX009 (ip), vehicle: acetone 92 % of control | dose: 12.5 mg/kg/injection, schedule: Q04DX003 (ip), vehicle: acetone 101 % of control | dose: 25.0 mg/kg/injection, schedule: Q01DX001 (ip), vehicle: acetone 112 % of control | dose: 25.0 mg/kg/injection, schedule: Q04DX003 (ip), vehicle: acetone 97 % of control

[Co].[NH-]CC[N-]CCO.[NH-]CC[N-]CCO
inactive: dose: 25.0 mg/kg/injection, schedule: Q01DX009 (ip), vehicle: saline 100 % of control | dose: 50.0 mg/kg/injection, schedule: Q01DX009 (ip), vehicle: saline 102 % of control | [14] 108 % of control | [8] 105 % of control

O=C1OC2=C(c3ccccc3)C(=O)OC2=C1c1ccccc1
inactive: [15] 97 % of control | [16] 104 % of control | [17] 95 % of control

COc1ccc2c(c1)CC[C@@H]1[C@@H]2CC[C@]2(C)/C(=N\O)CC[C@@H]12
inactive: dose: 100.0 mg/kg/injection, schedule: Q01DX001 (sc), vehicle: steriod suspending solution 100 % of control | dose: 100.0 mg/kg/injection, schedule: Q04DX003 (ip), vehicle: steriod suspending solution 102 % of control | dose: 200.0 mg/kg/injection, schedule: Q01DX001 (sc), vehicle: steriod suspending solution 100 % of control | dose: 200.0 mg/kg/injection, schedule: Q04DX003 (ip), vehicle: steriod suspending solution 100 % of control | dose: 400.0 mg/kg/injection, schedule: Q01DX001 (sc), vehicle: steriod suspending solution 97 % of control | dose: 400.0 mg/kg/injection, schedule: Q04DX003 (ip), vehicle: steriod suspending solution 97 % of control

CC1CCCC[N-]1.CC1CCCC[N-]1.CC1CCCC[N-]1.CC1CCCC[N-]1.N#CS.[Zn+2] (stereo not given)
inactive: [15] 93 % of control | [16] 103 % of control

CCN1CCN(Cc2ccccc2)C(CCl)C1 (stereo not given)
inactive: dose: 12.5 mg/kg/injection, schedule: Q01DX009 (ip), vehicle: Klucel (hydroxypropylcellulose) (HPC) 96 % of control | dose: 12.5 mg/kg/injection, schedule: Q04DX003 (ip), vehicle: Klucel (hydroxypropylcellulose) (HPC) 100 % of control | dose: 25.0 mg/kg/injection, schedule: Q01DX009 (ip), vehicle: Klucel (hydroxypropylcellulose) (HPC) 102 % of control | dose: 25.0 mg/kg/injection, schedule: Q04DX003 (ip), vehicle: Klucel (hydroxypropylcellulose) (HPC) 96 % of control | dose: 50.0 mg/kg/injection, schedule: Q04DX003 (ip), vehicle: Klucel (hydroxypropylcellulose) (HPC) 93 % of control
